Patent publication US20230023559A1, “ARYLMETHYLENE HETEROCYCLIC COMPOUNDS AS KV1.3 POTASSIUM SHAKER CHANNEL BLOCKERS” (D. E. Shaw Research, LLC, priority 2019, published 2023)

How the values were obtained:
Kv1.3 potassium channel = target: T1, Kv1.3 potassium channel (Homo sapiens, UniProt P22001); test: Kv1.3 potassium channel blocker activity, automated whole-cell patch clamp (Patchliner); assay type: cell-based; conditions: CHO-K1 cells stably expressing Kv1.3; whole cell current inhibition; read-out: Kv1.3_IC50
T1 construct: expressed in transfected cells
T1 sequence (P22001 whole entry): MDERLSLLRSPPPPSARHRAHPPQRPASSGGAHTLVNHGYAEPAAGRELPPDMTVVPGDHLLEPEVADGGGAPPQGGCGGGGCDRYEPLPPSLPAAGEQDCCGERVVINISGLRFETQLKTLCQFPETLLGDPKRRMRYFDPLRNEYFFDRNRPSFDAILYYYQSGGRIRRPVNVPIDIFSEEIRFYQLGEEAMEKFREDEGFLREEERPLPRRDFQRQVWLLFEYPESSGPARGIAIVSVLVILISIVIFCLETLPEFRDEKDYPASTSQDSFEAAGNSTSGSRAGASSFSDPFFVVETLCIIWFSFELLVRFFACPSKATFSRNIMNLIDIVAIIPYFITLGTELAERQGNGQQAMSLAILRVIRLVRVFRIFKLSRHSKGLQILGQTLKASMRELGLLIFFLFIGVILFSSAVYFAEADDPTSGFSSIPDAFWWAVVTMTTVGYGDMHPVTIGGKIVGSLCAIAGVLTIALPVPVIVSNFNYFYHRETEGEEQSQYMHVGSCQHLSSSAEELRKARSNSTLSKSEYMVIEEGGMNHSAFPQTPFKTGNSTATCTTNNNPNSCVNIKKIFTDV
How it was run: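 Peak-current block was recorded on stable Kv1.3 CHO-K1 cells by automated patch clamp, stepping from a −90 mV holding potential to +40 mV for 100 ms at 0.1 Hz with 10 s breaks between trains. Online P/4 leak subtraction, 10 kHz sampling; compound exposure under 10 s per train.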

hERG channel = hERG channel (Homo sapiens, UniProt Q12809); test: hERG electrophysiology, automated whole-cell patch clamp (Patchliner)
Chain of hERG channel (Q12809 whole entry): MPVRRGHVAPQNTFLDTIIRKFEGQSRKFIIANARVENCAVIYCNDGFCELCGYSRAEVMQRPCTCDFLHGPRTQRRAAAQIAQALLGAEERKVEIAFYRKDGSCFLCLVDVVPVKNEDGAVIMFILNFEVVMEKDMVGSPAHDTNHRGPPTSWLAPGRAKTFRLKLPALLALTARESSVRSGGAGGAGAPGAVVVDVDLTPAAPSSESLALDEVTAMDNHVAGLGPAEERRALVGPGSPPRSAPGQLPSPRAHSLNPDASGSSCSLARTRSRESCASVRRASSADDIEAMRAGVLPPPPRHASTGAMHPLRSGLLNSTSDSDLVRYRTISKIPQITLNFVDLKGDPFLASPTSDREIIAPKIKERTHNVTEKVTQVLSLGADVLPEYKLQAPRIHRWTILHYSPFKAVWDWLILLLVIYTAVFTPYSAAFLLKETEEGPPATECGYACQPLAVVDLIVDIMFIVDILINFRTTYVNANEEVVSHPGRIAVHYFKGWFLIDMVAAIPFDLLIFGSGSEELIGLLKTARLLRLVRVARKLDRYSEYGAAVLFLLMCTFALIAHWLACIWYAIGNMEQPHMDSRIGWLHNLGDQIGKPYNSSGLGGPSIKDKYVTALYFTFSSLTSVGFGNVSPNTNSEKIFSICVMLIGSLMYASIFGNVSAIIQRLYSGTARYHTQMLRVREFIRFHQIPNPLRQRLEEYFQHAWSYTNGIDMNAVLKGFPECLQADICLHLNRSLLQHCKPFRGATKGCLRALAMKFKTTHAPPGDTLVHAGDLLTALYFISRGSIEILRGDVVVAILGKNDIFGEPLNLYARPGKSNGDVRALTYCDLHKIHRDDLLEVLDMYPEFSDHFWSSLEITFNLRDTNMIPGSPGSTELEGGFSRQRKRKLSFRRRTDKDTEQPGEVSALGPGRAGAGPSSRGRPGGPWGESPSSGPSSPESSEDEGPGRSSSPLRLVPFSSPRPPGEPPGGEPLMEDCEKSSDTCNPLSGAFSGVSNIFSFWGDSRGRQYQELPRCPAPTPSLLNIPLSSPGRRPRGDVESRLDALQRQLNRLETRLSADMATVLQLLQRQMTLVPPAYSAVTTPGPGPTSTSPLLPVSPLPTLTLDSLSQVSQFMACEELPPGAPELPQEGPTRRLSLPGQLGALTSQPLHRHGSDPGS

IC50 (Kv1.3 potassium channel) | SMILES | IC50 (hERG channel)
< 0.5 µM | C[C@@H](O)[C@@H](O)C(=O)N1CCC([C@@H](N)c2cc(Cl)c(Cl)cc2O)CC1 (mixture of isomers) [Compound 281, 1-[4-[(R)-amino(4,5-dichloro-2-hydroxyphenyl)methyl]piperidin-1-yl]-(2R,3R)-rel-dihydroxybutan-1-one trifluoro-acetic acid] | > 30 µM
< 10 µM | Oc1cc(Cl)c(Cl)cc1[C@@H](O)C1CCNCC1 (single isomer, unassigned) [Compound 6] | > 30 µM
< 10 µM | Oc1cc(Cl)c(Cl)cc1[C@H](O)C1CCNCC1 (single isomer, unassigned) [Compound 7] | > 30 µM
< 10 µM | CC(=O)N[C@H](c1cc(Cl)c(Cl)cc1O)C1CCNCC1 (single isomer, unassigned) [Compound 10] | > 30 µM
< 0.5 µM | N[C@@H](c1cc(Cl)c(Cl)cc1O)C1CCNCC1 (single isomer, unassigned) [Compound 16, Trifluoroacetic Acid] | > 30 µM
< 10 µM | CC(=O)N1CCC([C@H](N)c2cc(Cl)c(Cl)cc2O)CC1 (single isomer, unassigned) [Compound 19] | < 30 µM
< 0.5 µM | CC(=O)N1CCC([C@@H](N)c2cc(Cl)c(Cl)cc2O)CC1 (single isomer, unassigned) [Compound 20] | < 30 µM
< 30 µM | N[C@H](c1c(O)cc(Cl)c(Cl)c1Cl)C1CCNCC1 (single isomer, unassigned) [Compound 60, Trifluoroacetic Acid] | > 30 µM
< 10 µM | N[C@@H](c1c(O)cc(Cl)c(Cl)c1Cl)C1CCNCC1 (single isomer, unassigned) [Compound 61, Trifluoroacetic Acid] | > 30 µM
< 0.5 µM | C[C@@H](N)C(=O)N1CCC([C@@H](N)c2cc(Cl)c(Cl)cc2O)CC1 (single isomer, unassigned) [Compound 69] | > 30 µM
< 10 µM | C[C@H](N)C(=O)N1CCC([C@H](N)c2cc(Cl)c(Cl)cc2O)CC1 (single isomer, unassigned) [Compound 75] | > 30 µM
< 0.5 µM | C[C@H](N)C(=O)N1CCC([C@@H](N)c2cc(Cl)c(Cl)cc2O)CC1 (single isomer, unassigned) [Compound 76] | > 30 µM
< 0.5 µM | N[C@@H](c1cc(Cl)c(Cl)cc1O)C1CCN(C(=O)[C@@H]2CCNC2)CC1 (single isomer, unassigned) [Compound 80] | > 30 µM
< 0.5 µM | NC(=O)N1CCC([C@H](N)c2cc(Cl)c(Cl)cc2O)CC1 (single isomer, unassigned) [Compound 81] | > 30 µM
< 10 µM | NC(=O)N1CCC([C@@H](N)c2cc(Cl)c(Cl)cc2O)CC1 (single isomer, unassigned) [Compound 82] | > 30 µM
< 0.5 µM | N[C@@H](c1cc(Cl)c(Cl)cc1O)C1CCN(C(=O)[C@H]2CCNC2)CC1 (single isomer, unassigned) [Compound 85] | > 30 µM
< 0.5 µM | O=C([C@@H]1CCNC1)N1CCC([C@H](O)c2cc(Cl)c(Cl)cc2O)CC1 (single isomer, unassigned) [Compound 115] | > 30 µM
< 0.5 µM | O=C([C@@H]1CCNC1)N1CCC([C@@H](O)c2cc(Cl)c(Cl)cc2O)CC1 (single isomer, unassigned) [Compound 116] | > 30 µM
< 0.5 µM | N[C@@H](c1cc(Cl)c(Cl)cc1O)C1CCN(C(=O)[C@H](O)CO)CC1 (single isomer, unassigned) [Compound 119] | > 30 µM
< 0.5 µM | N[C@@H](c1cc(Cl)c(Cl)cc1O)C1CCN(C(=O)[C@@H](O)CO)CC1 (single isomer, unassigned) [Compound 120] | > 30 µM
< 0.5 µM | O=C([C@@H]1CCNC1)N1CCC([C@@H](O)c2c(O)ccc(Cl)c2Cl)CC1 (single isomer, unassigned) [Compound 123, Trifluoroacetic Acid] | > 30 µM
< 10 µM | N[C@@H](c1cc(Cl)c(Cl)cc1O)[C@H]1CCNC1 (single isomer, unassigned; diastereoisomer 1) [Compound 32, 2-(amino(pyrrolidin-3-yl)methyl)-4,5-dichlorophenol Trifluoroacetic Acid Diastereoisomer 1] | > 30 µM

IC50 (Kv1.3 potassium channel) | SMILES | IC50 (hERG channel)
< 10 µM | N[C@@H](c1cc(Cl)c(Cl)cc1O)[C@@H]1CCNC1 (single isomer, unassigned; diastereoisomer 2) [Compound 33, 2-(amino(pyrrolidin-3-yl)methyl)-4,5-dichlorophenol Trifluoroacetic Acid Diastereoisomer 2] | > 30 µM
< 10 µM | N[C@@H](c1cc(Cl)c(Cl)cc1O)[C@@H]1CCC(=O)NC1 (single isomer, unassigned; diastereoisomer 2) [Compound 39, 5-(amino(4,5-dichloro-2-hydroxyphenyl)methyl)piperidin-2-one Diastereoisomer 2] | > 30 µM
< 0.5 µM | N[C@@H](c1cc(Cl)c(Cl)cc1O)C1CCN(S(=O)(=O)[C@@H]2CCNC2)CC1 (single isomer, unassigned; isomer 1) [Compound 112] | > 30 µM
< 10 µM | N[C@@H](c1cc(Cl)c(Cl)cc1O)C1CCN(C(=O)[C@H]2CC[C@H](O)C2)CC1 (single isomer, unassigned; isomer 1) [Compound 177] | < 30 µM
< 10 µM | C[C@@](O)(CO)C(=O)N1CCC([C@@H](N)c2cc(Cl)c(Cl)cc2O)CC1 (single isomer, unassigned; isomer 1) [Compound 217] | > 30 µM
< 0.5 µM | N[C@@H](c1cc(Cl)c(Cl)cc1O)C1CCN(C(=O)[C@H]2CCC(=O)NC2)CC1 (single isomer, unassigned; isomer 1) [Compound 221] | > 30 µM
< 0.5 µM | N[C@@H](c1cc(Cl)c(Cl)cc1O)C1CCN(C(=O)[C@@H]2CNC(=O)C2)CC1 (single isomer, unassigned; isomer 1) [Compound 296] | > 30 µM
< 0.5 µM | CC1CN(C(=O)[C@H](O)CO)CCC1[C@@H](N)c1cc(Cl)c(Cl)cc1O (single isomer, unassigned; isomer 1) [Compound 331] | > 30 µM
< 0.5 µM | N[C@@H](c1cc(Cl)c(Cl)cc1O)C1CCN(C(=O)[C@H]2CNC(=O)OC2)CC1 (single isomer, unassigned; isomer 1) [Compound 338] | > 30 µM
< 0.5 µM | N[C@@H](c1cc(Cl)c(Cl)cc1O)C1CCN(S(=O)(=O)[C@H]2CCNC2)CC1 (single isomer, unassigned; isomer 2) [Compound 118] | > 30 µM
< 0.5 µM | N[C@@H](c1cc(Cl)c(Cl)cc1O)C1CCN(C(=O)[C@@H]2CC[C@H](O)C2)CC1 (single isomer, unassigned; isomer 2) [Compound 179] | < 30 µM
< 0.5 µM | N[C@@H](c1cc(Cl)c(Cl)cc1O)C1CCN(C(=O)[C@@H]2CNC(=O)OC2)CC1 (single isomer, unassigned; isomer 2) [Compound 210] | > 30 µM
< 10 µM | C[C@](O)(CO)C(=O)N1CCC([C@@H](N)c2cc(Cl)c(Cl)cc2O)CC1 (single isomer, unassigned; isomer 2) [Compound 218] | > 30 µM
< 0.5 µM | N[C@@H](c1cc(Cl)c(Cl)cc1O)C1CCN(C(=O)[C@@H]2CCC(=O)NC2)CC1 (single isomer, unassigned; isomer 2) [Compound 222] | > 30 µM
< 0.5 µM | N[C@@H](c1cc(Cl)c(Cl)cc1O)C1CCN(C(=O)[C@H]2CNC(=O)C2)CC1 (single isomer, unassigned; isomer 2) [Compound 246] | > 30 µM
< 0.5 µM | N[C@@H](c1cc(Cl)c(Cl)cc1O)C1CCN(C(=O)[C@H]2CNC(=O)CO2)CC1 (single isomer, unassigned; isomer 2) [Compound 276] | > 30 µM
< 0.5 µM | C[C@H]1CN(C(=O)[C@H](O)CO)CC[C@H]1[C@@H](N)c1cc(Cl)c(Cl)cc1O (single isomer, unassigned; isomer 2) [Compound 332] | > 30 µM
< 0.5 µM | Cc1cc(O)c([C@H](N)C2CCN(C(=O)c3c[nH]c(=O)c4ccccc34)CC2)cc1Cl [Compound 325, 4-[4-[(R)-amino (5-chloro-2-hydroxy-4-methylphenyl)methyl]piperidine-1-carbonyl]-2H-isoquinolin-1-one trifluoroacetic acid] | 
< 10 µM | N[C@@H](c1cc(Cl)c(Cl)cc1O)[C@@H]1CCCN(C(=O)[C@H](O)CO)C1 [Compound 329, (2R)-1-[(3R)-3-[(R)-amino(4,5-dichloro-2-hydroxyphenyl)methyl]piperidin-1-yl]-2,3-dihydroxypropan-1-one Trifluoroacetic Acid] | 
> 10 µM | N[C@H](c1cc(Cl)c(Cl)cc1O)[C@@H]1CCCN(C(=O)[C@H](O)CO)C1 [Compound 330, (2R)-1-[(3R)-3-[(S)-amino(4,5-dichloro-2-hydroxyphenyl)methyl]piperidin-1-yl]-2,3-dihydroxypropan-1-one Trifluoroacetic Acid] | 
< 10 µM | CN[C@@H](c1cc(Cl)c(Cl)cc1O)C1CCN(C(=O)[C@H](O)CO)CC1 [Compound 337, (2R)-1-[4-[(R)-(4,5-dichloro-2-hydroxyphenyl)(methylamino)methyl]piperidin-1-yl]-2,3-dihydroxypropan-1-one] | 
